Results reported in patent US20040186066A1, “Method of treatment with nelfinavir” (AGOURON PHARMACEUTICALS, INC., priority 2003, published 2004).
Counter-ions that a name gives are not always drawn. Like-named read-outs stand apart in the source and are kept apart here.

Legend:
[1] = light breakfast 350 kcal/13 g fat vs standard breakfast 800 kcal/35 g fat; cited from earlier work
[2] = cited from earlier work
[3] = single dose; cited from earlier work
[4] = meals 517 to 759 Kcal, 153 to 313 Kcal from fat; cited from earlier work
[5] = Example 2: phase 1 crossover 3×3 study, fixed kilocalorie meal at 20% and 50% fat, single-dose pharmacokinetics of nelfinavir 250 mg tablets; format: in vivo, human (normal, healthy volunteers); conditions: for AUC / AUC(0-inf) / Cmax / AUC(0-t) / half-life / Tmax: human, plasma, oral, 1250 mg; for AUC: read-out: Nelfinavir AUC24; for AUC(0-t): read-out: AUC(0-tlqc), least-squares mean
Method: A study was conducted as a phase 1, randomized, open-label, crossover 3×3 study, designed to evaluate the impact of a fixed kilocalorie meal at 20% and 50% fat content on single-dose pharmacokinetic parameters of the nelfinavir 250 mg tablet formulation in normal, healthy volunteers. Subjects were dosed with 1250 mg of nelfinavir 3 times at one-week intervals and 24-hour PK profiles were collected following each of the doses. Each subject was assigned three meals with different fat contents prior to dosing (fasting, 500kcal with 20% fat, 500 kcal with 50% fat) using a Latin square design. Twenty-four subjects entered the study and twenty-two subjects completed it. Each subject received the following treatment in random order on Days 1, 8 and 15: 5×250 mg nelfinavir tablets with fasting; 5×250 mg nelfinavir tablets, with a meal comprising 500Kcal/20% fat; and 5×250 mg nelfinavir tablets with a meal having 500 Kcal/50% fat. The moderate calorie/low fat meal consisted of 500 Kcal with 20% fat (11.3 grams of fat). The moderate calorie/high fat meal consisted of 500 Kcal with 50% fat (27.8 grams of fat). Subjects were administered nelfinavir 1250-mg (five 250-mg tablets) on the morning of the pharmacokinetic evaluations. The nelfinavir terminal half-life (t½) in plasma is typically 3.5 to 5 hours. […] Subjects participated on an outpatient basis; however, subjects were admitted to the in-patient facility the evening prior to each PK evaluation and remained in the in-patient facility for approximately 16 hours post-dosing. The subjects returned the next morning (8 hours later) for their last 24 hr. pharmacokinetic blood draw. All pharmacokinetic evaluations were performed in the in-patient facility. Blood samples were collected and analyzed for plasma concentrations of nelfinavir and M8. For the fasting evaluation, subjects were required to complete an overnight fast of at least 10 hours prior to dosing in the morning. For the fed PK evaluations, subjects were required to complete an overnight fast of at least 10 hours, prior to receiving the protocol-specific standardized breakfast meal. Subjects were given 30 minutes to complete their standardized breakfast meal. Dosing was performed in the morning, immediately following the subject's completion of the standardized breakfast meal and after the subject's predose PK specimen had been collected. Subjects could not ingest water 1 hour prior to or 1 hour after dosing. A standardized lunch was given at least 4 hours after the morning dose and a standardized dinner was given at least 10 hours after the morning dose. Actual sampling times were used for all data evaluation. Mean Cmax and AUC values were calculated as the antilogs of least-squares mean log-transformed values (analogous to geometric means). Ratios and confidence intervals for Cmax and AUC values are also based on log-transformed values. Mean values for all other pharmacokinetic parameters are least-squares means. Ratios and confidence intervals for these parameters are based on untransformed values. Blood samples, 5 mL each, were collected as in Example 1. The timing of each sample collection was as follows: Predose and at 0.5, 1, 2, 3, 4, 6, 8, 12, 16 and 24 hours postdose on Days 1, 8, and 15. All blood samples were kept at […] (using either wet ice or cryoblock) until centrifugation. Blood samples were centrifuged within 1 hour of collection, at 3000 rpm (approximately 2619×g) for 15 minutes, to separate the plasma. The plasma samples were split evenly into 2 aliquots and stored in appropriately labeled polypropylene transport tubes. Plasma was stored frozen at […] or lower until analysis. Pharmacokinetic parameter values were calculated from plasma nelfinavir and M8 concentration-time data using standard noncompartmental pharmacokinetic methods as in Example 1. Plasma concentrations of nelfinavir and M8 were measured by validated high-performance liquid chromatography (HPLC) methods. […]

[6] = nelfinavir and nelfinavir plus M8; full breakfast 610 kcal vs light breakfast 271 kcal; once-daily with low-dose ritonavir; cited from earlier work
[7] = Kcal/Fat % 500/20% relative to fasting
[8] = Kcal/Fat % 500/50% relative to fasting
[9] = nelfinavir, moderate calorie/high fat meal (500 Kcal/50% fat) vs fasting
[10] = nelfinavir, moderate calorie/low fat meal (500 Kcal/20% fat) vs fasting

SMILES: Cc1c(O)cccc1C(=O)N[C@@H](CSc1ccccc1)[C@H](O)CN1C[C@H]2CCCC[C@H]2C[C@H]1C(=O)NC(C)(C)C (relative stereo) [nelfinavir, [3S-(3R*, 4aR*, 8aR*, 2′S*, 3′S*)]-2-[2′ hydroxy-3′-phenylthiomethyl-4′-aza-5′-oxo-5′-(2″-methyl-3″-hydroxy-phenyl)pentyl]-decahydroiso-quinoline-3-N-t-butylcarboxamide methanesulfonic acid salt]
- AUC0-12h less with light breakfast than with standard breakfast [1]: 13%
- effect of the two breakfasts on C1-hour post dose, Cmax and C12-hours [1]: No significant effects
- oral bioavailability ([2]; animals fasted overnight): 29%
- oral bioavailability ([2]; fed rats, dogs and monkeys (meal 30 minutes before drug administration)): 43%
- AUC under fasting conditions as % of AUC with food [3]: 27-50%
- AUC, fed compared to fasting [4]: two to three-fold higher
- maximum plasma concentrations, fed compared to fasting [4]: two to three-fold higher
- Nelfinavir AUC24 (×fasting) [5, 7]: 3.2 X
- Nelfinavir AUC∞ (×fasting) [5, 7]: 3.0 X
- Nelfinavir Cmax (×fasting) [5, 7]: 2.5 X
- Nelfinavir AUC24 (×fasting) [5, 8]: 5.2 X
- Nelfinavir AUC∞ (×fasting) [5, 8]: 5.1 X
- Nelfinavir Cmax (×fasting) [5, 8]: 3.8 X
- AUC ([5]; 1250 mg single dose, fasting): 10000 ng·h/mL
- AUC(0-inf) ([5]; 1250 mg single dose, fasting, read-out: Nelfinavir AUC∞): 10700 ng·h/mL
- Cmax ([5]; 1250 mg single dose, fasting, read-out: Nelfinavir Cmax): 1630 ng/mL
- AUC ([5]; Kcal/Fat % 500/20%): 32600 ng·h/mL
- AUC(0-inf) ([5]; Kcal/Fat % 500/20%, read-out: Nelfinavir AUC∞): 32700 ng·h/mL
- Cmax ([5]; Kcal/Fat % 500/20%, read-out: Nelfinavir Cmax): 4000 ng/mL
- AUC ([5]; Kcal/Fat % 500/50%): 52600 ng·h/mL
- AUC(0-inf) ([5]; Kcal/Fat % 500/50%, read-out: Nelfinavir AUC∞): 54600 ng·h/mL
- Cmax ([5]; Kcal/Fat % 500/50%, read-out: Nelfinavir Cmax): 6200 ng/mL
- AUC(0-t) ([5]; nelfinavir, 5×250-mg tablets during moderate calorie/high fat meal (500 Kcal/50% fat)): 52600 ng·h/mL
- AUC(0-inf) ([5]; nelfinavir, 5×250-mg tablets during moderate calorie/high fat meal (500 Kcal/50% fat), read-out: AUC(0-∞), least-squares mean): 54600 ng·h/mL
- Cmax ([5]; nelfinavir, 5×250-mg tablets during moderate calorie/high fat meal (500 Kcal/50% fat), read-out: Cmax, least-squares mean): 6160 ng/mL
- half-life ([5]; nelfinavir, 5×250-mg tablets during moderate calorie/high fat meal (500 Kcal/50% fat), read-out: t1/2 (terminal half-life), least-squares mean (converted)): 3.43 h
- Tmax ([5]; nelfinavir, 5×250-mg tablets during moderate calorie/high fat meal (500 Kcal/50% fat), read-out: tmax, least-squares mean): 4.48 h
- AUC(0-t) ([5]; nelfinavir, 5×250-mg tablets during moderate calorie/low fat meal (500 Kcal/20% fat)): 32600 ng·h/mL
- AUC(0-inf) ([5]; nelfinavir, 5×250-mg tablets during moderate calorie/low fat meal (500 Kcal/20% fat), read-out: AUC(0-∞), least-squares mean): 32700 ng·h/mL
- Cmax ([5]; nelfinavir, 5×250-mg tablets during moderate calorie/low fat meal (500 Kcal/20% fat), read-out: Cmax, least-squares mean): 4040 ng/mL
- half-life ([5]; nelfinavir, 5×250-mg tablets during moderate calorie/low fat meal (500 Kcal/20% fat), read-out: t1/2 (terminal half-life), least-squares mean (converted)): 3.08 h
- Tmax ([5]; nelfinavir, 5×250-mg tablets during moderate calorie/low fat meal (500 Kcal/20% fat), read-out: tmax, least-squares mean): 4.19 h
- AUC(0-t) ([5]; nelfinavir, 5×250-mg tablets single dose, fasting (reference)): 10000 ng·h/mL
- AUC(0-inf) ([5]; nelfinavir, 5×250-mg tablets single dose, fasting (reference), read-out: AUC(0-∞), least-squares mean): 10700 ng·h/mL
- Cmax ([5]; nelfinavir, 5×250-mg tablets single dose, fasting (reference), read-out: Cmax, least-squares mean): 1630 ng/mL
- half-life ([5]; nelfinavir, 5×250-mg tablets single dose, fasting (reference), read-out: t1/2 (terminal half-life), least-squares mean (converted)): 4.1 h
- Tmax ([5]; nelfinavir, 5×250-mg tablets single dose, fasting (reference), read-out: tmax, least-squares mean): 2.42 h
- half-life ([5]; nelfinavir, fasting subjects and test meals, similar, read-out: elimination t½, average (converted)): ~4 h
- Tmax ([5]; nelfinavir, meal of 20% fat content (500 kcal), read-out: mean tmax longer relative to fasting subjects): ~2 h
- Tmax ([5]; nelfinavir, meal of 50% fat content (500 kcal), read-out: mean tmax longer relative to fasting subjects): ~2 h
- AUC increase compared to the fasting AUC ([5]; nelfinavir, 500 Kcal, 50% fat breakfast): 5.2 fold
- AUC increase compared to the fasting AUC ([5]; nelfinavir, 500 kcal, 20% fat breakfast): 3.2 fold
- % coefficient of variation (CV) for AUC(0-∞) ([5]; nelfinavir, fasting subjects): 75%
- bioavailability higher relative to fasting subjects, based on AUC(0-∞) ([5]; nelfinavir, meal containing 20% fat (500 kcal)): approximately 3 fold
- bioavailability higher relative to fasting subjects, based on AUC(0-∞) ([5]; nelfinavir, meal containing 50% fat (500 kcal)): ~5 fold
- mean Cmax higher relative to fasting ([5]; nelfinavir, meal of 20% fat content (500 kcal)): approximately 2.5 fold
- mean Cmax higher relative to fasting ([5]; nelfinavir, meal of 50% fat content (500 kcal)): ~3.8 fold
- AUC(0-tlqc) ratio (100% × test/reference) [5, 9]: 524%
- AUC(0-∞) ratio (100% × test/reference) [5, 9]: 508%
- Cmax ratio (100% × test/reference) [5, 9]: 378%
- t1/2 ratio (100% × test/reference) [5, 9]: 83.7%
- tmax ratio (100% × test/reference) [5, 9]: 186%
- AUC(0-tlqc) ratio (100% × test/reference) [5, 10]: 325%
- AUC(0-∞) ratio (100% × test/reference) [5, 10]: 305%
- Cmax ratio (100% × test/reference) [5, 10]: 248%
- t1/2 ratio (100% × test/reference) [5, 10]: 75.0%
- tmax ratio (100% × test/reference) [5, 10]: 173%
- % coefficient of variation (CV) for AUC(0-∞) ([5]; nelfinavir, test meal containing 20% fat): 48%
- % coefficient of variation (CV) for AUC(0-∞) ([5]; nelfinavir, test meal containing 50% fat): 43%
- effect of meal consumption on AUC24h, corr and Cmin [6]: significant effect
